The values that follow come from US9352030B2, “Mycobacterium antigenic composition” (priority 2010, dated 2016).

Series [1] relates to chicken Red Blood cells (RBC). Briefly: QS21 lytic activity haemolysis assay (limit test). It counts as cell-based. The note with it: RBC 30 min RT, OD at 540 nm. How it is done: QS21 lytic activity was measured by a haemolysis assay using chicken Red Blood cells (RBC). RBC were centrifuged at 550 g at 4° C. Supernatant was discarded. The pellet was carefully resuspended in PBS buffer to reach the initial volume and the same operation was repeated until supernatant was no longer red (generally 3 times). The pellet was stored at 4° C. for 3 to 4 days maximum if not used directly (and washed again the day it is used) or was diluted around 10 times in buffer if used the same day.
A QS21 dose range curve was prepared in ASA buffer (in salt or in sorbitol buffer following the ASA sample tested) extemporaneously and the adjuvant samples (containing a 50 ug or 90 ug equivalent of QS21 meaning the equivalent of 500 ul or 900 ul ASA) were prepared. Final volume was adjusted to 900 ul in standards and samples with adequate buffer (containing or not sorbitol as a function of the buffer of the sample tested). Due to its opalescence, ASA interferes with optical density (OD). ASA “blanks” were thus prepared and their OD was subtracted from the OD of ASA tested samples. Those blanks corresponded to the same ASA volume as the volume tested in samples, but adjusted to 1 ml with buffer. No RBC were added to these blanks. Standards and samples were then incubated with RBC (100 ul of diluted RBC added to 900 ul of standards and samples) for 30 minutes at room temperature (RT). Samples were then centrifuged 5 minutes at 900 g. Optical density at 540 nm was measured after centrifugation.
Determination of lytic activity was carried out by a limit test.
1. Limit of detection (LOD) was defined as the lowest concentration of QS21 leading to an OD: • Higher than the base level (OD>0.1) • Around three times higher than OD's buffer (the “0 ug” QS21) • In the ascendant part of the curve • Determined for each test.
2. QS21 lytic activity was held to be positive in the adjuvant samples if the OD for the adjuvant sample was greater than the ODLOD).

Series [2] can be described thus: Conductivity determination (Malvern Zetasizer Nano). It counts as physicochemical. How it is done: A range of standards having sodium chloride concentrations of 0, 75, 100, 150, 250 and 300 mM were prepared from a stock solution of 1500 mM sodium chloride by dilution in water for injection.
Immunogenic compositions were prepared using M72 with two N-terminal His residues according to the procedures provided in Example 9. To investigate the contribution from the antigen itself and any residual materials in the purified bulk, placebo lyophilisation cakes were also prepared by excluding the antigen component.
Using a Malvern Zetasizer Nano and 1.5 ml of each sample in folded capillary cells, a voltage of 30 to 150 V (determined automatically by the instrument) was applied and the conductivity determined.

A short description of series [3]: Nephlometry of Rv1196 compositions with varied pH and NaCl after storage. It counts as physicochemical. The note with it: 100 ug/ml; pH 6.1, 7.5, 8.5; 0, 150, 450 mM NaCl; 24 hours at 4° C. or 25° C. How it is done: Rv1196 protein (SEQ ID No: 1) was obtained from Corixa Corporation and was diluted to a concentration of 100 ug/ml in three different buffers (10 mM phosphate buffer at pH 6.1, 20 mM Tris buffer at pH 7.5 and 20 mM Tris buffer at pH 8.5) containing final sodium chloride concentrations of 0, 150 and 450 mM.
Samples were stored for 24 hours at 4° C. or 25° C. before analysis.
Nephlometry was performed using a Nepheloskan® Ascent, available from Thermo Fischer Scientific. Analysis was performed in UV transparent Costar® micro-plates available from Corning Inc (USA).

Series [4] can be described thus: DLS of Rv1196 compositions with varied pH and NaCl after storage. It counts as physicochemical. The note with it: 100 ug/ml; pH 8.5.
The format of series [5] is physicochemical. The note with it: pH 7.5 or 8.5; sodium chloride 150 mM or greater.
For series [6], the system named is M72-specific rabbit polyclonal antibody and M72(Mtb39)-specific mouse monoclonal antibody. In words: M72 antigenicity sandwich ELISA, varied pH and NaCl (Example 10). It counts as binding. Particulars: pH 7.5 or 8.5; sodium chloride 150 mM or greater. (In general: In an ELISA, binding on a coated surface is turned into a signal by an enzyme label.)
The format of series [7] is physicochemical. Particulars: 100 ug/ml; pH 6.1, 7.5, 8.5; 0, 150, 450 mM NaCl; 24 hours at 4° C. or 25° C.
Series [8] is classed as physicochemical. The note with it: 100 ug/ml; pH 6.1, 7.5, 8.5; 0, 150, 450 mM NaCl; 24 hours at 4° C. or 25° C. The source holds these as a separate data set.

Regarding QS21, the OD in series [1] (0.5 ug QS21 standard) is recorded as 0.052; in series [1] (0.6 ug QS21 standard), 0.073; in series [1] (0.7 ug QS21 standard), 0.091; in series [1] (0.8 ug QS21 standard) it was 0.096; in series [1] (0.9 ug QS21 standard) it was 0.12.

In the case of `[Cl-].[Na+]` [sodium chloride], the Conductivity in series [2] (75 mM sodium chloride standard in water for injection) was 8.2 mS/cm; in series [2] (300 mM sodium chloride standard in water for injection), 30.0 mS/cm.

B1: Rv1196: Rv1196 protein (SEQ ID No: 1) from Mycobacterium tuberculosis H37Rv, obtained from Corixa Corporation (protein)
chain: MVDFGALPPEINSARMYAGPGSASLVAAAQMWDSVASDLFSAASAFQSVVWGLTVGSWIGSSAGLMVAAASPYVAWMSVTAGQAELTAAQVRVAAAAYETAYGLTVPPPVIAENRAELMILIATNLLGQNTPAIAVNEAEYGEMWAQDAAAMFGYAAATATATATLLPFEEAPEMTSAGGLLEQAAAVEEASDTAAANQLMNNVPQALQQLAQPTQGTTPSSKLGGLWKTVSPHRSPISNMVSMANNHMSMTNSGVSMTNTLSSMLKGFAPAAAAQAVQTAAQNGVRAMSSLGSSLGSSGLGGGVAANLGRAASVGSLSVPQAWAAANQAVTPAARALPLTSLTSAAERGPGQMLGGLPVGQMGARAGGGLSGVLRVPPRPYVMPHSPAAG
modifications: Mycobacterium tuberculosis H37Rv
For B1, the “clarity by nephlometry with increasing salt concentration” value in series [3] is “sensitive to salt concentration”. Moreover, the “particle size by DLS” value in series [4] is on record as “concentration of sodium chloride impacts the measured particle size”.

B2: M72: fusion protein antigen comprising Rv1196, M72 with two N-terminal His residues, SEQ ID No: 7 (protein)
chain: MHHTAASDNFQLSQGGQGFAIPIGQAMAIAGQIRSGGGSPTVHIGPTAFLGLGVVDNNGNGARVQRVVGSAPAASLGISTGDVITAVDGAPINSATAMADALNGHHPGDVISVTWQTKSGGTRTGNVTLAEGPPAEFMVDFGALPPEINSARMYAGPGSASLVAAAQMWDSVASDLFSAASAFQSVVWGLTVGSWIGSSAGLMVAAASPYVAWMSVTAGQAELTAAQVRVAAAAYETAYGLTVPPPVIAENRAELMILIATNLLGQNTPAIAVNEAEYGEMWAQDAAAMFGYAAATATATATLLPFEEAPEMTSAGGLLEQAAAVEEASDTAAANQLMNNVPQALQQLAQPTQGTTPSSKLGGLWKTVSPHRSPISNMVSMANNHMSMTNSGVSMTNTLSSMLKGFAPAAAAQAVQTAAQNGVRAMSSLGSSLGSSGLGGGVAANLGRAASVGSLSVPQAWAAANQAVTPAARALPLTSLTSAAERGPGQMLGGLPVGQMGARAGGGLSGVLRVPPRPYVMPHSPAAGDIAPPALSQDRFADFPALPLDPSAMVAQVGPQVVNINTKLGYNNAVGAGTGIVIDPNGVVLTNNHVIAGATDINAFSVGSGQTYGVDVVGYDRTQDVAVLQLRGAGGLPSAAIGGGVAVGEPVVAMGNSGGQGGTPRAVPGRVVALGQTVQASDSLTGAEETLNGLIQFDAAIQPGDAGGPVVNGLGQVVGMNTAAS
modifications: M72 fusion with 2 additional his residues
Take B2: the “change in antigen size” value in series [5] was “clear increase in antigen size”. Further, in series [6], the change in antigenicity entry was “reduction in antigenicity”.

B3: Mtb72f: fusion protein antigen, Mtb72f with 6 his residues, SEQ ID No: 11 (protein)
chain: MHHHHHHTAASDNFQLSQGGQGFAIPIGQAMAIAGQIRSGGGSPTVHIGPTAFLGLGVVDNNGNGARVQRVVGSAPAASLGISTGDVITAVDGAPINSATAMADALNGHHPGDVISVTWQTKSGGTRTGNVTLAEGPPAEFMVDFGALPPEINSARMYAGPGSASLVAAAQMWDSVASDLFSAASAFQSVVWGLTVGSWIGSSAGLMVAAASPYVAWMSVTAGQAELTAAQVRVAAAAYETAYGLTVPPPVIAENRAELMILIATNLLGQNTPAIAVNEAEYGEMWAQDAAAMFGYAAATATATATLLPFEEAPEMTSAGGLLEQAAAVEEASDTAAANQLMNNVPQALQQLAQPTQGTTPSSKLGGLWKTVSPHRSPISNMVSMANNHMSMTNSGVSMTNTLSSMLKGFAPAAAAQAVQTAAQNGVRAMSSLGSSLGSSGLGGGVAANLGRAASVGSLSVPQAWAAANQAVTPAARALPLTSLTSAAERGPGQMLGGLPVGQMGARAGGGLSGVLRVPPRPYVMPHSPAAGDIAPPALSQDRFADFPALPLDPSAMVAQVGPQVVNINTKLGYNNAVGAGTGIVIDPNGVVLTNNHVIAGATDINAFSVGSGQTYGVDVVGYDRTQDVAVLQLRGAGGLPSAAIGGGVAVGEPVVAMGNSGGQGGTPRAVPGRVVALGQTVQASDSLTGAEETLNGLIQFDAAIQPGDSGGPVVNGLGQVVGMNTAAS
modifications: Mtb72f fusion with 6 additional his residues
B3: the “nephlometry trend with salt concentration and pH” value in series [7] was “sensitive to salt concentration and pH”. Also, the “DLS size trend with salt concentration and pH” value in series [8] was “sensitive to salt concentration and pH”.
